From ChEMBL document CHEMBL3817812, “An expeditious four-component domino protocol for the synthesis of novel thiazolo[3,2-a]thiochromeno[4,3-d]pyrimidine derivatives as antibacterial and antibiofilm agents” (Bioorg Med Chem, 2016)
≈ marks a conversion by molar mass, not a printed value. Calls of active or inactive are those of the source. The rule behind the calls is not given here.

Tests used:
Pseudomonas aeruginosa = experiment: Antibacterial activity against Pseudomonas aeruginosa MTCC 2453 incubated for 24 hrs by well diffusion method; format: functional; conditions: MTCC 2453, 24 h
Bacillus subtilis [1] = experiment: Antibacterial activity against Bacillus subtilis MTCC 121 incubated for 24 hrs by well diffusion method; format: functional; conditions: MTCC 121, 24 h
Staphylococcus aureus [2] = experiment: Antibacterial activity against Staphylococcus aureus MLS16 MTCC 2940 incubated for 24 hrs by well diffusion method; format: functional; conditions: MLS16 MTCC 2940, 24 h
Micrococcus luteus [3] = experiment: Bactericidal activity against Micrococcus luteus MTCC 2470 incubated for 24 hrs by broth dilution method; format: functional; conditions: MTCC 2470, 24 h
Staphylococcus aureus [4] = experiment: Antibacterial activity against Staphylococcus aureus MTCC 96 incubated for 24 hrs by well diffusion method; format: functional; conditions: MTCC 96, 24 h
Raoultella planticola = experiment: Antibacterial activity against Klebsiella planticola MTCC 530 incubated for 24 hrs by well diffusion method; format: functional; conditions: MTCC 530, 24 h
Staphylococcus aureus [5] = experiment: Bactericidal activity against Staphylococcus aureus MLS16 MTCC 2940 incubated for 24 hrs by broth dilution method; format: functional; conditions: MLS16 MTCC 2940, 24 h
Escherichia coli = experiment: Antibacterial activity against Escherichia coli MTCC 739 incubated for 24 hrs by well diffusion method; format: functional; conditions: MTCC 739, 24 h
Staphylococcus aureus [6] = experiment: Bactericidal activity against Staphylococcus aureus MTCC 96 incubated for 24 hrs by broth dilution method; format: functional; conditions: MTCC 96, 24 h
Bacillus subtilis [7] = experiment: Bactericidal activity against Bacillus subtilis MTCC 121 incubated for 24 hrs by broth dilution method; format: functional; conditions: MTCC 121, 24 h
Micrococcus luteus [8] = experiment: Antibacterial activity against Micrococcus luteus MTCC 2470 incubated for 24 hrs by well diffusion method; format: functional; conditions: MTCC 2470, 24 h
Staphylococcus aureus [9] = experiment: Induction of ROS accumulation in Staphylococcus aureus MTCC 96 biofilm at 2 ug/ml after 24 hrs by DCFH-DA staining-based fluorometric assay; format: functional, organism-based
Micrococcus luteus [10] = experiment: Antibiofilm activity against Micrococcus luteus MTCC 2470 incubated for 24 hrs by crystal violet staining-based assay; format: functional, organism-based; conditions: MTCC 2470, 24 h
Staphylococcus aureus [11] = experiment: Induction of ROS accumulation in Staphylococcus aureus MTCC 96 biofilm at 4 ug/ml after 24 hrs by DCFH-DA staining-based fluorometric assay; format: functional, organism-based
Staphylococcus aureus [12] = experiment: Antibiofilm activity against Staphylococcus aureus MLS16 MTCC 2940 incubated for 24 hrs by crystal violet staining-based assay; format: functional, organism-based; conditions: MLS16 MTCC 2940, 24 h
Staphylococcus aureus [13] = experiment: Antibiofilm activity against Staphylococcus aureus MTCC 96 incubated for 24 hrs by crystal violet staining-based assay; format: functional, organism-based; conditions: MTCC 96, 24 h
Bacillus subtilis [14] = experiment: Antibiofilm activity against Bacillus subtilis MTCC 121 incubated for 24 hrs by crystal violet staining-based assay; format: functional, organism-based; conditions: MTCC 121, 24 h

SMILES | MIC (Pseudomonas aeruginosa) | MIC (Bacillus subtilis [1]) | MIC (Staphylococcus aureus [2]) | MIC (Staphylococcus aureus [4]) | MIC (Escherichia coli) | MIC (Micrococcus luteus [8]) | IC50 (Staphylococcus aureus [13]) | IC50 (Bacillus subtilis [14]) | MBC (Micrococcus luteus [3]) | MIC (Raoultella planticola) | MBC (Staphylococcus aureus [5]) | MBC (Staphylococcus aureus [6]) | MBC (Bacillus subtilis [7]) | Activity (Staphylococcus aureus [9]) | IC50 (Micrococcus luteus [10]) | Activity (Staphylococcus aureus [11]) | IC50 (Staphylococcus aureus [12])
Cc1ccc(C2C3=C(N=C4SC=C(c5cc6ccccc6oc5=O)N42)c2ccccc2SC3)cc1 (configuration not stated) | > 125 µg/mL | > 125 µg/mL | 31.2 µg/mL (≈ 63.3 µM) | 31.2 µg/mL (≈ 63.3 µM) | > 125 µg/mL | > 125 µg/mL | – | – | > 125 µg/mL | > 125 µg/mL | 31.2 µg/mL (≈ 63.3 µM) | 62.5 µg/mL (≈ 127 µM) | > 125 µg/mL | – | – | – | –
O=c1oc2ccccc2cc1C1=CSC2=NC3=C(CSc4ccccc43)C(c3ccc(Cl)cc3)N12 (configuration not stated) | > 125 µg/mL | > 125 µg/mL | > 125 µg/mL | > 125 µg/mL | > 125 µg/mL | > 125 µg/mL | – | – | – | > 125 µg/mL | – | – | – | – | – | – | –
Cc1ccc(C2=CSC3=NC4=C(CSc5ccccc54)C(c4ccccc4)N23)cc1 (configuration not stated) | > 125 µg/mL | 3.9 µg/mL (≈ 9.19 µM) | 3.9 µg/mL (≈ 9.19 µM) | 3.9 µg/mL (≈ 9.19 µM) | > 125 µg/mL | 7.8 µg/mL (≈ 18.4 µM) | 2.1 µg/mL (≈ 4.95 µM) | 1.9 µg/mL (≈ 4.47 µM) | 15.6 µg/mL (≈ 36.7 µM) | > 125 µg/mL | 7.8 µg/mL (≈ 18.4 µM) | 7.8 µg/mL (≈ 18.4 µM) | 3.9 µg/mL (≈ 9.19 µM) | Active | 5.3 µg/mL (≈ 12.5 µM) | Active | 2.4 µg/mL (≈ 5.65 µM)
O=C(O)c1cn(C2CC2)c2cc(N3CCNCC3)c(F)cc2c1=O [CIPROFLOXACIN] | 0.9 µg/mL (≈ 2.72 µM) | 0.9 µg/mL (≈ 2.72 µM) | 0.9 µg/mL (≈ 2.72 µM) | 0.9 µg/mL (≈ 2.72 µM) | 0.9 µg/mL (≈ 2.72 µM) | 0.9 µg/mL (≈ 2.72 µM) | – | – | 1.9 µg/mL (≈ 5.73 µM) | 0.9 µg/mL (≈ 2.72 µM) | 0.9 µg/mL (≈ 2.72 µM) | 1.9 µg/mL (≈ 5.73 µM) | 0.9 µg/mL (≈ 2.72 µM) | Active | 0.4 µg/mL (≈ 1.21 µM) | Active | 0.4 µg/mL (≈ 1.21 µM)
Brc1ccc(C2=CSC3=NC4=C(CSc5ccccc54)C(c4ccccc4)N23)cc1 (configuration not stated) | > 125 µg/mL | > 125 µg/mL | > 125 µg/mL | > 125 µg/mL | > 125 µg/mL | > 125 µg/mL | – | – | – | > 125 µg/mL | – | – | – | – | – | – | –
Cc1ccc(C2C3=C(N=C4SC=C(c5ccc(Br)cc5)N42)c2ccccc2SC3)cc1 (configuration not stated) | > 125 µg/mL | > 125 µg/mL | > 125 µg/mL | > 125 µg/mL | > 125 µg/mL | > 125 µg/mL | – | – | – | > 125 µg/mL | – | – | – | – | – | – | –
O=c1oc2ccccc2cc1C1=CSC2=NC3=C(CSc4ccccc43)C(c3cccc([N+](=O)[O-])c3)N12 (configuration not stated) | > 125 µg/mL | > 125 µg/mL | > 125 µg/mL | > 125 µg/mL | > 125 µg/mL | > 125 µg/mL | – | – | – | > 125 µg/mL | – | – | – | – | – | – | –
C1=C(c2ccccc2)N2C(=NC3=C(CSc4ccccc43)C2c2ccccc2)S1 (configuration not stated) | > 125 µg/mL | > 125 µg/mL | > 125 µg/mL | 31.2 µg/mL (≈ 76 µM) | > 125 µg/mL | > 125 µg/mL | – | – | > 125 µg/mL | > 125 µg/mL | > 125 µg/mL | 62.5 µg/mL (≈ 152 µM) | > 125 µg/mL | – | – | – | –
O=c1oc2ccccc2cc1C1=CSC2=NC3=C(CSc4ccccc43)C(c3ccccc3)N12 (configuration not stated) | > 125 µg/mL | 31.2 µg/mL (≈ 65.2 µM) | 31.2 µg/mL (≈ 65.2 µM) | 15.6 µg/mL (≈ 32.6 µM) | > 125 µg/mL | 31.2 µg/mL (≈ 65.2 µM) | – | – | 31.2 µg/mL (≈ 65.2 µM) | > 125 µg/mL | 62.5 µg/mL (≈ 131 µM) | 31.2 µg/mL (≈ 65.2 µM) | 62.5 µg/mL (≈ 131 µM) | – | – | – | –

Now from value to molecule, other results behind:

MIC (Pseudomonas aeruginosa) | MIC (Bacillus subtilis [1]) | MIC (Staphylococcus aureus [2]) | MIC (Staphylococcus aureus [4]) | MIC (Escherichia coli) | MIC (Micrococcus luteus [8]) | IC50 (Staphylococcus aureus [13]) | IC50 (Bacillus subtilis [14]) | SMILES | MBC (Micrococcus luteus [3]) | MIC (Raoultella planticola) | MBC (Staphylococcus aureus [5]) | MBC (Staphylococcus aureus [6]) | MBC (Bacillus subtilis [7]) | Activity (Staphylococcus aureus [9]) | IC50 (Micrococcus luteus [10]) | Activity (Staphylococcus aureus [11]) | IC50 (Staphylococcus aureus [12])
> 125 µg/mL | 62.5 µg/mL (≈ 132 µM) | 15.6 µg/mL (≈ 32.8 µM) | 7.8 µg/mL (≈ 16.4 µM) | > 125 µg/mL | > 125 µg/mL | – | – | COc1ccc(C2=CSC3=NC4=C(CSc5ccccc54)C(c4ccc(Cl)cc4)N23)cc1 (configuration not stated) | > 125 µg/mL | > 125 µg/mL | 31.2 µg/mL (≈ 65.7 µM) | 15.6 µg/mL (≈ 32.8 µM) | 62.5 µg/mL (≈ 132 µM) | – | – | – | –
> 125 µg/mL | > 125 µg/mL | > 125 µg/mL | > 125 µg/mL | > 125 µg/mL | > 125 µg/mL | – | – | Clc1ccc(C2=CSC3=NC4=C(CSc5ccccc54)C(c4ccccc4)N23)cc1 (configuration not stated) | – | > 125 µg/mL | – | – | – | – | – | – | –
> 125 µg/mL | 31.2 µg/mL (≈ 59.6 µM) | > 125 µg/mL | 31.2 µg/mL (≈ 59.6 µM) | > 125 µg/mL | > 125 µg/mL | – | – | Clc1ccc(C2C3=C(N=C4SC=C(c5ccc(Br)cc5)N42)c2ccccc2SC3)cc1 (configuration not stated) | > 125 µg/mL | > 125 µg/mL | > 125 µg/mL | 62.5 µg/mL (≈ 119 µM) | 31.2 µg/mL (≈ 59.6 µM) | – | – | – | –
> 125 µg/mL | > 125 µg/mL | 15.6 µg/mL (≈ 35.1 µM) | > 125 µg/mL | > 125 µg/mL | > 125 µg/mL | – | – | Clc1ccc(C2C3=C(N=C4SC=C(c5ccccc5)N42)c2ccccc2SC3)cc1 (configuration not stated) | – | > 125 µg/mL | – | – | – | – | – | – | –
> 125 µg/mL | > 125 µg/mL | > 125 µg/mL | > 125 µg/mL | > 125 µg/mL | > 125 µg/mL | – | – | O=[N+]([O-])c1cccc(C2C3=C(N=C4SC=C(c5ccc(Cl)cc5)N42)c2ccccc2SC3)c1 (configuration not stated) | – | > 125 µg/mL | – | – | – | – | – | – | –
> 125 µg/mL | 15.6 µg/mL (≈ 31.8 µM) | > 125 µg/mL | > 125 µg/mL | > 125 µg/mL | 15.6 µg/mL (≈ 31.8 µM) | – | – | O=[N+]([O-])c1ccc(C2=CSC3=NC4=C(CSc5ccccc54)C(c4ccc(Cl)cc4)N23)cc1 (configuration not stated) | 31.2 µg/mL (≈ 63.7 µM) | > 125 µg/mL | > 125 µg/mL | > 125 µg/mL | 31.2 µg/mL (≈ 63.7 µM) | – | – | – | –
